Results: US20140037694A1, “ADJUVANT FOR TRANSDERMAL OR TRANSMUCOSAL ADMINISTRATION AND PHARMACEUTICAL PREPARATION CONTAINING SAME” (HISAMITSU PHARMACEUTICAL CO., INC., priority 2011, published 2014)
Entries after “also recorded” stand apart in the source; their conditions may differ.

What was measured:
[1] = tested on: OVA-specific IgG antibody titer; test: Microneedle (OVA) application + transdermal adjuvant application; OVA-specific IgG antibody titer by ELISA; format: in vivo, hairless rats; conditions: for IgG antibody titer / adjuvant effect (FIG. 5): Example 5; for IgG antibody titer / adjuvant effect (FIG. 5) / IgG antibody titer / adjuvant effect (FIG. 2): 120 μL stock solution, 6 hr after OVA microneedles; for IgG antibody titer / adjuvant effect (FIG. 5) / IgG antibody titer / adjuvant effect (FIG. 1) / IgG antibody titer / adjuvant effect (FIG. 2): titers after 5 weeks; for IgG antibody titer / adjuvant effect (FIG. 5) / IgG antibody titer / adjuvant effect (FIG. 1): compared to OVA alone; for IgG antibody titer / adjuvant effect (FIG. 1): Example 1, 120 μL stock solution on patch-test tape for 6 hr after OVA microneedles, dosing weeks 0, 2, 4; for IgG antibody titer / adjuvant effect (FIG. 2): Example 3, purified water control; for Adjuvant effect against anti-OVA IgG: titers after 4 weeks
[2] = tested on: OVA-specific IgG antibody titer; test: Intradermic injection (OVA) application + glycerin application; OVA-specific IgG antibody titer by ELISA; format: in vivo, hairless rats; conditions: Example 4; intradermal OVA 20 μg + glycerin co-used; after two weeks
Experimental: (§1) Regarding (i) and (ii), OVA 20 μg/[…] (saline) was intradermally administered.

[3] = tested on: OVA-specific IgG antibody titer; test: Microneedle (OVA) application + transdermal adjuvant application; OVA-specific IgG antibody titer by ELISA; format: in vivo, hairless rats; conditions: Example 4
Experimental: as §1

skin = tested on: skin; parameters: Skin irritation score: key to the marks not given beside the values; conditions: rat, in vivo

SMILES: CC(O)CO (stereo not shown) [PG, propylene glycol]
- IgG antibody titer / adjuvant effect (FIG. 5) [1]: strong adjuvant effect

SMILES: OCC(O)CO [glycerin]
- IgG antibody (FIG. 4) [2]: no IgG antibody was detected
- Adjuvant effect (FIG. 3) ([3]; OVA by microneedles + glycerin 120 μL 6 hr, titers after 4 weeks, compared to intradermal injection of OVA): exhibited more clearly by the microneedle application
- IgG antibody titer time course (FIG. 4) ([3]; OVA microneedles with concomitant glycerin, from 2 weeks): increase the IgG antibody titer was observed
- IgG antibody titer / adjuvant effect (FIG. 1) [1]: high adjuvant effect
- IgG antibody titer / adjuvant effect (FIG. 2) [1]: adjuvant effect of the glycerin was confirmed
- IgG antibody titer / adjuvant effect (FIG. 5) [1]: strong adjuvant effect
- Adjuvant effect against anti-OVA IgG ([1]; Example 6, glycerin concentration 25%, 120 μL 6 hr): none
- Adjuvant effect against anti-OVA IgG ([1]; Example 6, glycerin concentration 75%, 120 μL 6 hr): excellent adjuvant effect was confirmed
- Adjuvant effect against anti-OVA IgG ([1]; Example 6, glycerin concentration 75%, 120 μL 6 hr, listed as Glycerin): present
- Adjuvant effect against anti-OVA IgG ([1]; Example 7, 100% glycerin applied 10 min after antigen administration by microneedles, 6 hr): apparent increase in the IgG antibody titer; also recorded: high IgG antibody titer
- Adjuvant effect against anti-OVA IgG ([1]; Example 7, 100% glycerin applied 10 min after antigen administration by microneedles, 6 hr, listed as Glycerin): present
- Adjuvant effect against anti-OVA IgG ([1]; Example 7, simultaneously with antigen, mixture of OVA/pullulan/41% glycerin on microneedles): no adjuvant effect was observed
- Adjuvant effect against anti-OVA IgG ([1]; Example 7, simultaneously with antigen, mixture of OVA/pullulan/41% glycerin on microneedles, listed as Glycerin): none
- Adjuvant effect ([1]; glycerin concentration 100 wt %): particularly excellent adjuvant effect

SMILES: CC(C)=CCC/C(C)=C/CC/C(C)=C/CC/C=C(\C)CC/C=C(\C)CCC=C(C)C [squalene, reference compound]
- Skin irritation (skin): no skin irritation
- IgG antibody titer / adjuvant effect (FIG. 2) [1]: low IgG antibody titer similar to the control

SMILES: CC(=O)OCC(COC(C)=O)OC(C)=O [triacetin]
- IgG antibody titer / adjuvant effect (FIG. 5) [1]: strong adjuvant effect

SMILES: CCCCCCCC/C=C\CCCCCCCC(=O)OCC(O)CO (stereo not shown) [GMO, monoglyceryl oleate]
- IgG antibody titer / adjuvant effect (FIG. 5) [1]: adjuvant effect similar to that of low molecules such as glycerin

SMILES: CCO [ethanol]
- Skin irritation observation (skin): significant skin irritation accompanied by necrosis
- Skin irritation score (skin): +++
- IgG antibody titer / adjuvant effect (FIG. 1) [1]: high adjuvant effect
